In assay [1] the test system is Vero. The experiment in a line: Cytotoxicity against african green monkey Vero cells. The following applies: Chlorocebus sabaeus. It is filed as cell-based.
Assay [2] relates to Mycobacterium tuberculosis. As to the kind of experiment: Antitubercular activity against Mycobacterium tuberculosis H37Rv ATCC 27294. It is filed as functional.

Values after ≈ are worked out from the molar mass of the structure shown.

Broadly, the IC50 is the midpoint of a concentration-inhibition curve. In general, MIC refers to the least concentration at which growth counts as inhibited. On to `CC(C)[C@H]1CC[C@@H]2[C@]1(C)CC[C@@]1(C)CC[C@@](C)(O)[C@@H]3C[C@@]231`, for which, in assay [1], the IC50 amounted to 184 µg/mL (≈ 633 µM). In assay [2], this molecule had an MIC of 20 µg/mL (≈ 68.8 µM).
As to `CO[C@H]1/C=C/O[C@@]2(C)Oc3c(C)c(O)c4c(O)c(c(/C=N/N5CCN(C)CC5)c(O)c4c3C2=O)NC(=O)/C(C)=C\C=C\[C@H](C)[C@H](O)[C@@H](C)[C@@H](O)[C@@H](C)[C@H](OC(C)=O)[C@@H]1C` [RIFAMPIN], the IC50 in assay [1] was more than 158 µg/mL.

These data come from ChEMBL document CHEMBL1150928, “A new antitubercular mulinane diterpenoid from Azorella madreporica Clos” (J Nat Prod, 1998).
